In patent US7964613B2 (Asahi Kasei Pharma Corporation, priority 2007, dated 2011):

How the values were obtained:
human ROCK1 = biological target: T1, human ROCK1 (Homo sapiens, UniProt Q13464); assay: Measurement of Rho kinase inhibitory activity (ELISA of MBS phosphorylation); format: biochemical; details: human ROCK1, MBS substrate, 100 μM ATP, 30° C. for 10 minutes
T1 construct: His tag (N); host or cells: insect cells (Sf9)
Method: In this test, human ROCK1 was used as Rho kinase, MBS (myosin binding subunit, subunit constituting myosin phosphatase) was used as the substrate of Rho kinase, and an anti-phosphorylated MBS antibody was used for detection of phosphorylation. The activity for inhibiting Rho kinase was determined by measuring phosphorylation of MBS by the Rho kinase by ELISA in the presence of an appropriately diluted test compound. As the Rho kinase used, a recombinant protein (N-terminal His-tagged recombinant human ROCK1 residues (1Met-[…])) was used, which was produced in insect cells (Sf9) using a sequence (1-727), of which activity was confirmed in the paper of Ishizaki et al. (Ishizaki, T. et al., FEBS Letters, 404, pp 118-124, 1997), based on the sequence of human ROCK1 (p 160 ROCK) described in the report of Ishizaki et al. (Ishizaki, T. et al., EMBO J., 15, pp 1885-1893, 1996). Further, as the MBS protein and anti-phosphorylated MBS antibody, those prepared according to the method described in the paper of Ito et al. (Ito, K et al., J. Physiol., 546, pp 823-836, 2003) were used.
A solution of MBS (Asahi Kasei Pharma, lot No, 040814n7-10) diluted with PBS to an appropriate concentration was added to an ELISA plate (Maxisorp, Nunc), and left, stand overnight at 4° C., and then the wells were washed twice with a washing solution (WB, washing buffer, 0.1% Tween 20/PBS). To the wells were added 1% bovine serum albumin (Sigma)/PBS, and left for 1 to 3 hours, and then the wells were washed 5 times with WB to prepare a substrate-immobilized plate. Onto this plate, a reaction mixture (5 mM MgSO4/0.1 M NaCl/20 mM HEPES (pH 7.5)/100 μM ATP/5 mM DTT), a test compound, and appropriately diluted human ROCK1 (Asahi Kasei Pharma, lot No, 030126.120-22) were added, and then reacted at 30° C. for 10 minutes. Then, 0.2 M EDTA (pH 7.5) was added to terminate the reaction, and the wells were washed 5 times with WB. A rabbit anti-phosphorylated MBS antibody solution (Asahi Kasei Pharma, lot No, 122676431) diluted 10,000 times with WB containing 1% bovine serum albumin was added to the wells, and after the reaction for 1 hour, the wells were washed 5 times with WB. Goat anti-rabbit IgG-HRP (Zymed) diluted 1,000 times with WB containing 1% bovine serum albumin was added to the wells as the secondary detection antibody and the mixture was reacted for 1 hour, and then the wells were washed 5 times with WB. An OPD (o-phenylenediamine) solution (1 mg/ml OPD, Sigma), 5.1 g/l of citric acid monohydrate, and 18.4 g/l of Na2HPO4.12H2O were added to the wells to develop color, […] was added 5 minutes later to terminate the color development, and absorbance was measured at 490 nm.
The inhibition ratio was calculated as follows. Inhibition ratio(%)=[…]
Further, the inhibition ratio was calculated with changing the concentration of the test compound, and a compound concentration providing an inhibition ratio of 50% was obtained as IC50.

[1] = system: rabbit normal intraocular pressure; assay: Intraocular pressure reducing action; format: in vivo, Japanese white rabbit; details: Oryctolagus cuniculus, topical; 3 mM aqueous solution, 50 μl to the left eye; max IOP reduction (2, 4, 6 hours) / value immediately before administration; read-out: intraocular pressure reducing degree
How it was run: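 Japanese white rabbits (~2 kg) under topical anaesthesia received 50 μl of a 3 mM aqueous test solution in the left eye, right eye untreated. IOP read by tonometer before and at 2, 4, 6 h; maximal left–right difference divided by pre-dose IOP ×100 gives % reduction.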

T1 sequence (Q13464 1-727): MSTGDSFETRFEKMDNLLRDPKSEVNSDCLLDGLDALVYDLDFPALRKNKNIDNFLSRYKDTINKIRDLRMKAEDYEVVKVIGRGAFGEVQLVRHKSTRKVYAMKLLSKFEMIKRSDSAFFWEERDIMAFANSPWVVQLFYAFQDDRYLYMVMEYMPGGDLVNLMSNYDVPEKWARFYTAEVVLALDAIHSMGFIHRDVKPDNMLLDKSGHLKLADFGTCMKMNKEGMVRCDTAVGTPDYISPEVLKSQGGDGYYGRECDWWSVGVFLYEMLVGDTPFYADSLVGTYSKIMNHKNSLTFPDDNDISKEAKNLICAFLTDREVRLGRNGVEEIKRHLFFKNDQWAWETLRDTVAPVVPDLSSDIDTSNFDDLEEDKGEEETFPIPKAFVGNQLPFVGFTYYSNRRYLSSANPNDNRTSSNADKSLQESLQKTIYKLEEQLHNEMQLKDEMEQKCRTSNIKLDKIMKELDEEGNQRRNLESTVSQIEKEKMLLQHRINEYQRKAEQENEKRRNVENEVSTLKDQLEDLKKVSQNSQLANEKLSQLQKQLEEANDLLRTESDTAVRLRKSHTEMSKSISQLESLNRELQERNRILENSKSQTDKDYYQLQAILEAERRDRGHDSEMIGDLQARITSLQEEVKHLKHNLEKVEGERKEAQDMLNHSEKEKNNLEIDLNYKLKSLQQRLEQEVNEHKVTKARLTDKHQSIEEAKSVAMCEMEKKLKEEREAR

Row | Structure (SMILES) | IC50 (human ROCK1) | inhibition in vivo at 3000 µM [1]
1 | C=CCN[C@H]1CCN(S(=O)(=O)c2cccc3cncc(C)c23)C1 [Example 8-34] | < 1000 nM | 5 to 10%
2 | Cc1cncc2cccc(S(=O)(=O)N3CC[C@H](NCCc4ccccc4)C3)c12 [Example 8-37] | < 1000 nM | 5 to 10%
3 | C=Cc1cncc2cccc(S(=O)(=O)N3CC[C@H](N)C3)c12 [Example 9-1, (S)-3-Amino-1-(4-vinyl-5-isoquinolinesulfonyl)pyrrolidine] | < 1000 nM | ≥ 20%
4 | C#Cc1cncc2cccc(S(=O)(=O)N3CC[C@H](NCc4ccc(OC)cc4)C3)c12 [Example 10-7] | < 1000 nM | 10 to 20%
5 | Nc1cncc2cccc(S(=O)(=O)N3CC[C@H](N)C3)c12 [Example 12-1, (S)-3-Amino-1-(4-amino-5-isoquinolinesulfonyl)pyrrolidine] | 1000 to 3000 nM | 10 to 20%
6 | COc1cncc2cccc(S(=O)(=O)N3CC[C@H](N)C3)c12 [Example 15-1, (S)-3-Amino-1-(4-methoxy-5-isoquinolinesulfonyl)pyrrolidine] | 1000 to 3000 nM | 5 to 10%
7 | COc1ccc(CN[C@H]2CCN(S(=O)(=O)c3cccc4cncc(F)c34)C2)cc1 [Example 18-7] | < 1000 nM | 5 to 10%
8 | N[C@@H]1CCN(S(=O)(=O)c2cccc3cncc(Cl)c23)C1 [Example 19-2, (R)-3-Amino-1-(4-chloro-5-isoquinolinesulfonyl)pyrrolidine] | < 1000 nM | ≥ 20%
9 | NCCN[C@H]1CCN(S(=O)(=O)c2cccc3cncc(Cl)c23)C1 [Example 19-32] | 1000 to 3000 nM | ≥ 20%
10 | O=S(=O)(c1cccc2cncc(Cl)c12)N1CC[C@H](NCc2ccc3c(c2)OCCO3)C1 [Example 19-40] | < 1000 nM | 5 to 10%
11 | N[C@H]1CCCN(S(=O)(=O)c2cccc3cncc(Cl)c23)C1 [Example 21-1, (S)-3-Amino-1-(4-chloro-5-isoquinolinesulfonyl)piperidine] | 1000 to 3000 nM | ≥ 20%
12 | N[C@@H]1CCCN(S(=O)(=O)c2cccc3cncc(Cl)c23)C1 [Example 21-2, (R)-3-Amino-1-(4-chloro-5-isoquinolinesulfonyl)piperidine] | 1000 to 3000 nM | 10 to 20%
13 | Cc1cncc2cccc(S(=O)(=O)N3CCC[C@H](N)C3)c12 [Example 22-1, (S)-3-Amino-1-(4-methyl-5-isoquinolinesulfonyl)piperidine] | < 1000 nM | 10 to 20%
14 | Cc1cncc2cccc(S(=O)(=O)N3CCC[C@@H](N)C3)c12 [Example 22-2, (R)-3-Amino-1-(4-methyl-5-isoquinolinesulfonyl)piperidine] | < 1000 nM | 10 to 20%
15 | CCc1cncc2cccc(S(=O)(=O)N3CC[C@H](N)C3)c12 [Example 23-1, (S)-3-Amino-1-(4-ethyl-5-isoquinolinesulfonyl)pyrrolidine] | < 1000 nM | 10 to 20%
16 | Cc1cnc(O)c2cccc(S(=O)(=O)N3CC[C@H](N)C3)c12 [Example 25-1, (S)-3-Amino-1-(1-hydroxy-4-methyl-5-isoquinolinesulfonyl)pyrrolidine] | < 1000 nM | 10 to 20%
17 | Cc1cncc2cccc(S(=O)(=O)N3CC(N)C3)c12 [Example 26, 3-Amino-1-(4-methyl-5-isoquinolinesulfonyl)azetidine] | < 1000 nM | 5 to 10%
18 | CN[C@@H]1CCN(S(=O)(=O)c2cccc3cncc(C)c23)C1 [Example 27, (R)-3-(Methylamino)-1-(4-methyl-5-isoquinolinesulfonyl)pyrrolidine] | < 1000 nM | 5 to 10%
19 | N[C@H]1CCN(S(=O)(=O)c2cccc3c(O)ncc(Cl)c23)C1 [Example 30-1, (S)-3-Amino-1-(1-hydroxy-4-chloro-5-isoquinolinesulfonyl)pyrrolidine] | < 1000 nM | ≥ 20%
